Measured values from patent US9346761B2, “Arginine methyltransferase inhibitors and uses thereof” (Epizyme, Inc., priority 2013, dated 2016).

How the values were obtained:
Full-length human PRMT6 = biological target: T1, Full-length human PRMT6 (Homo sapiens, UniProt Q96LA8); test: PRMT6 biochemical assay (3H-SAM Flashplate, peptide substrate)
T1 construct: Flag-PRMT6-His was eluted with 200 ug/ml FLAG peptide in the same buffer; made in house; host or cells: HEK 293F cells (BacMam virus, pFastBacMam)
T1 sequence (Q96LA8 with tags, fused parts or gaps): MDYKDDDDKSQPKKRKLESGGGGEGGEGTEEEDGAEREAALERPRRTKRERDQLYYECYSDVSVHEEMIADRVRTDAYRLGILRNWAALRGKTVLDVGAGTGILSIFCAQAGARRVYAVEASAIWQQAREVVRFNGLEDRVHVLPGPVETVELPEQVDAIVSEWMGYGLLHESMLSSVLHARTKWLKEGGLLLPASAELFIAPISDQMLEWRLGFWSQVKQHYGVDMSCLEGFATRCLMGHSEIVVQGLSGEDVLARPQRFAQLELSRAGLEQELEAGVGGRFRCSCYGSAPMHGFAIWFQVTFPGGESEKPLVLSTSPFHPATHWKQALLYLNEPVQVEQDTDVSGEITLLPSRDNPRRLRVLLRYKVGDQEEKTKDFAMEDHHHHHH
From the text: (§1) General Materials. S-adenosylmethionine (SAM), S-adenosylhomocysteine (SAH), bicine, Tween20, dimethylsulfoxide (DMSO), bovine skin gelatin (BSG), sodium butyrate and Tris(2-carboxyethyl)phosphine hydrochloride solution (TCEP) were purchased from Sigma-Aldrich at the highest level of purity possible. ^3H-SAM was purchase from American Radiolabeled Chemicals with a specific activity of 80 Ci/mmol. 384-well streptavidin Flashplates were purchased from PerkinElmer.
Substrates. Peptide representative of human histone H4 residues 36-50 was synthesized with an N-terminal linker-affinity tag motif and a C-terminal amide cap by 21st Century Biochemicals.
The amplified gene was subcloned into pFastBacMam (Viva Biotech).
Protein Expression. Recombinant baculovirus were generated according to Bac-to-Bac kit instructions (Life Technologies). […] Infections were carried out at 37° C. for 48 hours, harvested by centrifugation, and stored at −80° C. for purification.
Protein Purification. […] Column was washed with 20 mM imidazole in the same buffer and Flag-PRMT6-His was eluted with 150 mM imidazole. Pooled fractions were dialysed against buffer Ni-A and further purified by anti-flag M2 affinity chromatography. Flag-PRMT6-His was eluted with 200 ug/ml FLAG peptide in the same buffer. Pooled fractions were dialysed in 20 mM Tris, 150 mM NaCl, 10% glycerol and 5 mM β-mercaptoethanol, pH 7.8.
(§2) General Procedure for PRMT6 Enzyme Assays on Peptide Substrates. The assays were all performed in a buffer consisting of 20 mM Bicine (pH=7.6), 1 mM TCEP, 0.005% BSG, and 0.002% Tween 20, prepared on the day of use. […] DMSO (1 ul) was added to Columns 11, 12, 23, 24, rows A-H for the maximum signal control and 1 ul of SAH, a known product and inhibitor of PRMT6, was added to columns 11, 12, 23, 24, rows I-P for the minimum signal control. A cocktail (40 ul) containing the PRMT6 enzyme was added by Multidrop Combi (Thermo-Fisher). The compounds were allowed to incubate with PRMT6 for 30 min at room temperature, then a cocktail (10 ul) containing SAM and peptide was added to initiate the reaction (final volume=51 ul). […] The assays were stopped by the addition of non-radiolabeled SAM (10 ul) to a final concentration of 400 uM, which dilutes the ^3H-SAM to a level where its incorporation into the peptide substrate is no longer detectable. 50 ul of the reaction in the 384-well polypropylene plate was then transferred to a 384-well Flashplate and the biotinylated peptides were allowed to bind to the streptavidin surface for at least 1 hour before being washed once with 0.1% Tween20 in a Biotek ELx405 plate washer. The plates were then read in a PerkinElmer TopCount plate reader to measure the quantity of ^3H-labeled peptide bound to the Flashplate surface, measured as disintegrations per minute (dpm) or alternatively, referred to as counts per minute (cpm).
(§3) Where dpm=disintegrations per minute, cmpd=signal in assay well, and min and max are the respective minimum and maximum signal controls.
(§4) Where top and bottom are the normally allowed to float, but may be fixed at 100 or 0 respectively in a 3-parameter fit. The Hill Coefficient normally allowed to float but may also be fixed at 1 in a 3-parameter fit. Y is the % inhibition and X is the compound concentration.

[1] = tested on: mono-methyl arginine in RKO cells; test: RKO methylation assay, In Cell Western for mono-methyl arginine and DNA content; format: cell-based; details: Homo sapiens; In Cell Western, RKO cells, 72 hours, percent activation of mono-methyl arginine signal; read-out: EC30
From the text: RKO adherent cells were purchased from ATCC (American Type Culture Collection), Manassas, Va., USA. DMEM/Glutamax medium, penicillin-streptomycin, heat inactivated fetal bovine serum, 0.05% trypsin and D-PBS were purchased from Life Technologies, Grand Island, N.Y., USA. Odyssey blocking buffer, 800CW goat anti-rabbit IgG (H+L) antibody, and Licor Odyssey infrared scanner were purchased from Licor Biosciences, Lincoln, Nebr., USA. Mono-methyl arginine antibody was purchased from Cell Signaling Technology, Danvers, Mass., USA. Methanol was purchased from VWR, Franklin, Mass., USA. 10% Tween 20 was purchased from KPL, Inc., Gaithersburg, Md., USA. […] was purchased from Biostatus Limited, Leicestershire, UK.
RKO adherent cells were maintained in growth medium (DMEM/Glutamax medium supplemented with 10% v/v heat inactivated fetal bovine serum and 100 units/mL penicillin-streptomycin) and cultured at 37° C. under 5% CO2
Cell Treatment, in Cell Western (ICW) for Detection of Mono-Methyl Arginine and DNA Content. […] Compound (100 nL) from a 96-well source plate was added directly to 384 well cell plate. Plates were incubated at 37° C., 5% CO2 for 72 hours. After three days of incubation, plates were brought to room temperature outside of the incubator for ten minutes and blotted on paper towels to remove cell media. 50 μL of ice cold 100% methanol was added directly to each well and incubated for 30 min at room temperature. After 30 min, plates were transferred to a Biotek EL406 plate washer and washed 2 times with 100 μL per well of wash buffer (1×PBS). Next 60 μL per well of Odyssey blocking buffer (Odyssey Buffer with 0.1% Tween 20 (v/v)) were added to each plate and incubated 1 hour at room temperature. Blocking buffer was removed and 20 μL per well of primary antibody was added (mono-methyl arginine diluted 1:200 in Odyssey buffer with 0.1% Tween 20 (v/v)) and plates were incubated overnight (16 hours) at 4° C. Plates were washed 5 times with 100 μL per well of wash buffer. […] The plates were washed 5 times with 100 μL per well wash buffer then 2 times with 100 μL per well of water. Plates were allowed to dry at room temperature then imaged on the Licor Odyssey machine which measures integrated intensity at 700 nm and 800 nm wavelengths. Both 700 and 800 channels were scanned.
Calculations: First, the ratio for each well was determined by:
Each plate included fourteen control wells of DMSO only treatment (minimum activation) as well as fourteen control wells for maximum activation treated with 20 μM of a reference compound. The average of the ratio values for each control type was calculated and used to determine the percent activation for each test well in the plate. Reference compound was serially diluted three-fold in DMSO for a total of nine test concentrations, beginning at 20 μM. Percent activation was determined and EC30 curves were generated using triplicate wells per concentration of compound.

[2] = biological target: T2, Full-length human PRMT1 isoform 1 (Homo sapiens, UniProt Q99873); test: PRMT1 biochemical assay (3H-SAM Flashplate, peptide substrate)
T2 construct: GST-tagged PRMT1; made in house; host or cells: High Five insect cells (baculovirus, pFastBacI)
T2 sequence (Q99873 with tags, fused parts or gaps): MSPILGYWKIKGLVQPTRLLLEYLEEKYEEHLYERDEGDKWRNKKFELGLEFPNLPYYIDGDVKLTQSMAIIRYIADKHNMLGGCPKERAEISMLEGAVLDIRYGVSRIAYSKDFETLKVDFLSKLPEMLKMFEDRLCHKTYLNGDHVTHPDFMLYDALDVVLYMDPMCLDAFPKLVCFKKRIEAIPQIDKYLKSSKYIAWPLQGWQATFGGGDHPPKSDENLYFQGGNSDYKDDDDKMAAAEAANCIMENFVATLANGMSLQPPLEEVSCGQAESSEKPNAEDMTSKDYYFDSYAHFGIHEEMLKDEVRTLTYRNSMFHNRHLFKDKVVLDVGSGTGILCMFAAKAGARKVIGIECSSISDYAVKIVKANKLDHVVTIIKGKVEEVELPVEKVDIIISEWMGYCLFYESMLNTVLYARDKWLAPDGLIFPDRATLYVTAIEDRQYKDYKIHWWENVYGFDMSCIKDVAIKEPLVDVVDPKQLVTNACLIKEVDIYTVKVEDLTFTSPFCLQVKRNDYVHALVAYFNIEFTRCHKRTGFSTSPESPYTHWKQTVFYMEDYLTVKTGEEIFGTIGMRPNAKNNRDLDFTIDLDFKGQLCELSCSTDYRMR
From the text: as §1, with “(BSG),” for “(BSG), sodium butyrate”
Protein Expression. Recombinant baculovirus were generated according to Bac-to-Bac kit instructions (Life Technologies). […] Infections were carried out at 27° C. for 48 hours, harvested by centrifugation, and stored at −80° C. for purification.
Protein Purification. […] GST-tagged PRMT1 was eluted with 50 mM Tris, 2 mM glutathione, pH 7.8, dialysed in buffer A and concentrated to 1 mg/mL.
as §2, with “PRMT1” for “PRMT6”, “PRMT1,” for “PRMT6,”, “300” for “400”
as §3, §4

Row | SMILES | IC50 (Full-length human PRMT6) | EC30 [1] | IC50 [2]
1 | CNCCN(C)Cc1c[nH]nc1-c1ccc(OC(C)C)c(F)c1 [Compound 181] | < 100 nM | > 12000 nM | < 100 nM
2 | CNCCN(C)Cc1c[nH]nc1-c1cc(Cl)c(OC(C)C)c(Cl)c1 [Compound 265, N^1-((3-(3,5-dichloro-4-isopropoxyphenyl)-1H-pyrazol-4-yl)methyl)-N^1,N^2-dimethylethane-1,2-diamine] | < 100 nM | < 3000 nM | < 100 nM
3 | CNCCN(C)Cc1n[nH]cc1-c1cc(OC(C)C)cc(C(C)C)c1 [Compound 272] | 1010 to 3000 nM | > 12000 nM | 101 to 1000 nM
4 | CC(C)Cc1cc(-c2n[nH]cc2CN(C)CCN)ccc1F [Compound 280] | < 100 nM | < 3000 nM | < 100 nM
5 | CC(C)Oc1ccc(-c2nn(C)cc2CN(C)CCN)cc1 [Compound 176] | < 100 nM | < 3000 nM | < 100 nM
6 | CNCCN(C)Cc1n[nH]cc1-c1cc(C(C)C)cc(C(C)C)c1 [Compound 242] | 1010 to 3000 nM | > 12000 nM | 101 to 1000 nM
7 | CNCCN(C)Cc1n[nH]cc1-c1cc(Cl)c(OC(C)C)c(Cl)c1 [Compound 273] | < 100 nM | < 3000 nM | < 100 nM
8 | CNCCN(C)Cc1nn(C)cc1-c1ccc(OCCCOC)cc1 [Compound 266] | < 100 nM | > 12000 nM | 101 to 1000 nM
9 | CNCCN(C)Cc1n[nH]cc1-c1cc(CC(C)C)cc(CC(C)C)c1 [Compound 271] | 101 to 1000 nM | > 12000 nM | < 100 nM
10 | CNCCN(C)Cc1c[nH]nc1-c1ccc(OCCCO)cc1 [Compound 236] | < 100 nM | < 3000 nM | < 100 nM
11 | CC(C)Oc1ccc(-c2c(CN(C)CCN)cnn2C)cc1 [Compound 177] | < 100 nM | < 3000 nM | < 100 nM
12 | CNCCN(C)Cc1n[nH]cc1-c1ccc(Oc2cccc(C#N)c2)cc1 [Compound 267] | < 100 nM | < 3000 nM | < 100 nM
13 | CN(CCN)Cc1c[nH]nc1-c1ccc(Oc2ccccc2F)cc1 [Compound 259] | < 100 nM | < 3000 nM | < 100 nM
14 | CN(CCN)Cc1c[nH]nc1-c1ccc(OC2CCOCC2)cc1 [Compound 178] | < 100 nM | < 3000 nM | < 100 nM
15 | CNCCN(C)Cc1n[nH]cc1-c1ccc(Oc2ccccc2)c(C#N)c1 [Compound 234] | < 100 nM | < 3000 nM | < 100 nM
16 | CNCCN(C)Cc1n[nH]cc1-c1ccc(Oc2cccc(OC)c2)cc1 [Compound 239] | < 100 nM | < 3000 nM | < 100 nM
17 | CNCCN(C)Cc1c[nH]nc1-c1cc(Cl)c(OCC2CC2)c(Cl)c1 [Compound 282] | < 100 nM | < 3000 nM | < 100 nM
18 | CNCCN(C)Cc1c[nH]nc1-c1ccc(Oc2cccc(OC)c2)cc1 [Compound 230] | < 100 nM | < 3000 nM | < 100 nM
19 | CC(C)Cc1cccc(-c2n[nH]cc2CN(C)CCN)c1 [Compound 235] | 101 to 1000 nM | < 3000 nM | < 100 nM
20 | CNCCN(C)Cc1c[nH]nc1-c1ccc(OC2CCOCC2)cc1 [Compound 175] | < 100 nM | < 3000 nM | < 100 nM
21 | CNCCN(C)Cc1n[nH]cc1-c1ccc(Oc2ccccc2)c(C(=O)NC)c1 [Compound 240] | < 100 nM | 3010 to 12000 nM | < 100 nM
22 | COCCCOc1ccc(-c2n[nH]cc2CN(C)CCN)cc1 [Compound 179] | < 100 nM | < 3000 nM | < 100 nM
23 | CNCCN(C)Cc1c[nH]nc1-c1ccc(Oc2ccccc2F)cc1 [Compound 237] | < 100 nM | < 3000 nM | < 100 nM
24 | CNCCN(C)Cc1c[nH]nc1-c1ccc(Oc2cccc(C(C)C)c2)cc1 [Compound 262] | < 100 nM | < 3000 nM | < 100 nM
25 | CNCCN(C)Cc1c[nH]nc1-c1ccc(Oc2ccccc2C(=O)NC)cc1 [Compound 274] | < 100 nM | < 3000 nM | < 100 nM
26 | CNCCN(C)Cc1c[nH]nc1-c1ccc(Oc2cccc(C#N)c2)cc1 [Compound 261] | < 100 nM | < 3000 nM | < 100 nM
